Assays:
[1] = system: PCSK9 expression in HEPG2 cells; assay: Berberine signaling in HEPG2: PCSK9 western blot of supernatant; type: cell-based, human; conditions: 24 hours; for expression of PCSK9 in supernatant (western blot): 25 to 3.125 ug/ml, versus negative control
Procedure: HEPG2 cells were cultured in 24 well plates to confluence in DMEM supplemented with 10% FBS. After reaching confluence, cells were incubated overnight with 0.1% FBS OPTIMEM for serum starvation. After serum starvation the cells were incubated with berberine, DHB, or THB in 0.1% FBS OPTIMEM using the following dose course: 25 ug/ml, 12.5 ug/ml 6.25 ug/ml 3.125 ug/ml for 24 hours. Supernatant was collected after stimulation and western blotted as follows:
(1) Resolved on 12.5% gel.
(3) Blocked with 3% BSA TBST (4) Rabbit anti PCSK9 (Cayman chemicals cat 10007185) at 1/600 in TTBS (5) Wash 3×5 min with TTBS (6) HRP-Goat anti-Rabbit 1/1000 (Cayman chemicals) (7) Wash 3×5 min with TTBS (8) Detection with ECL
Proprotein convertase subtilisin/kexin type 9 (PCSK9) post-transcriptionally downregulates the low-density lipoprotein receptor (LDLR) by binding to the receptor's epidermal growth factor repeat A on the cell surface and shuttling the LDLR to the lysosomes for degradation. […] Previous reports indicate that berberine has lipid lowering effects in both animal models and human trials (Arrigo F. G., Cicero, L., Rovati C. et al., 2007). The signalling effects of berberine, DHB, and THB were evaluated using the human liver cell line HEPG2. PCSK9, an enzyme that acts in cholesterol homeostasis, is expressed in HEPG2 cells and these cells have previously been used as a model of dyslipidemia. PCSK9 binds to LDL receptor causing uptake of LDL and the LDL receptor and targets both molecules for degradation upon internalization. In the absence of PCSK9, LDL and LDL receptor are still internalized, however, LDL receptor is not degraded but instead recycled to the cell surface resulting in more efficient uptake of circulating LDL.

[2] = system: male Zucker fa/fa rat, a model of type 2 diabetes and metabolic disorder; assay: Efficacy of transdermal berberine alone and in combination with pharmaceuticals in a model of metabolic syndrome (Example 19); type: in vivo, obese male Zucker fa/fa rats; conditions: Zucker fa/fa rats
Procedure: Fourteen obese male Zucker fa/fa rats at 5 weeks of age were housed for five weeks to the age of 10 weeks. During these five weeks, body weight measurements were taken once a week and once daily health observations were conducted for all animals. […] On Day 28, serum and whole liver was collected. […] Food and water intake measurements were taken once a week during the study period of Day 0 to Day 28. […] A sufficient amount of test article was supplied and formulated. Test article product was administered at a dose of 3.6 g/kg twice a day (e.g. […] Berberine cream was weighed fresh daily at each AM and PM dosing to avoid desiccation of the test article. Daily PO and TD dosing of the test articles took place between the hours of 08:00 to 10:00 and 16:00 to 18:00 for 7 days a week between Day 0 to 27. […] The exact time of dosing (up to the minute) was recorded for each animal on the daily dosing sheets. […] Remaining dosing solutions were stored at 4° C. between dosing periods. […] The animals shaved underwemt gaseous anaesthetic according to SOP ROD28.01 to ensure accuracy and avoid undue stress of the animal. The area was further shaven as needed over the course of the dosing period to ensure accurate drug application and absorption. At dosing, the animals were restrained and the transdermal test articles were applied in a uniform layer over the entire shaved area. […] PTS3028).

[3] = Plasma concentrations of berberine, berberine glucuronide, simvastatin and simvastatin hydroxy acid in rats (Example 20); type: in vivo; conditions: rats (n=2); oral 180 mg/kg/dose or transdermal 3.6 g/kg/dose
male Zucker rats (fa/fa) = assay: Efficacy of administration routes and dihydroberberine in a model of metabolic syndrome (Example 22); type: in vivo; conditions: BID
Procedure: This study examined the efficacy of administration of a derivative of berberine (dihydroberberine) in transdermal formulations in 24 male Zucker rats (fa/fa), similar to the study protocol in Example 19. The following formulations were prepared: […] Animals were maintained without treatment until ten weeks of age at which time groups were randomized by weight and blood glucose. Animal weights were recorded daily and expressed here as percent change from Day zero.

[4] = Circulating berberine after chronic administration by various routes (Example 23); type: in vivo; conditions: male, rat, plasma, oral, 180 mg/kg/dose; 15 days administration BID, Zucker fa/fa rats
[5] = Solubility testing of berberine and dihydroberberine using various solvents; type: physicochemical
Procedure: Solubility was determined in a step-wise procedure that involved attempting to dissolve the berberine/DHB in the solvents at relatively high concentrations. […] Then the expected solvent was added to the berberine/DHB. The container was sonicated at RT or at 40C for 30 minutes. The following solvents were tested to dissolve the DHB. Dimethyl sulfoxide (Reagent Grade; […] Lot #STB[…]), and Glycerol tributyrate (Sigma T8626; Lot #BCBQ […]). […] The solubility was visually checked and state of solubility was recorded.

[6] = rats; cited from earlier work
[7] = humans; cited from earlier work
[8] = oral route, published; cited from earlier work
[9] = averaged over the entire experiment
[10] = Glycerol tributyrate, sonication 40 C.
[11] = Glycerol tributyrate, sonication RT
[12] = Isopropyl myristate, sonication 40 C.
[13] = Isopropyl myristate, sonication RT
[14] = Isosorbid-dimethyl ether 98%, sonication RT
[15] = Oleyl alcohol, sonication 40 C.

COc1ccc2cc3[n+](cc2c1OC)CCc1cc2c(cc1-3)OCO2 [berberine, Berberine]
concentration down to which expression of PCSK9 was reduced [1]: 6.25 µg/mL
expression of PCSK9 in supernatant (western blot) [1]: reduce the expression of PCSK9
expression of PCSK9 in supernatant (western blot) ([1]; listed as Berberine): down-regulate the expression of PCSK9
rate of weight gain (grams/day) ([2]; BID, Day 0 to 28, n=2): 3.3 grams/day
overall triglyceride levels (mmol/L+/−SEM) ([2]; averaged for the entire experiment): 9.5 ± 1.0 mmol/L
overall HbA1c level change (mmol/mmol+/−SEM) [2, 9]: 31.3+/−0.7 mmol/mmol
overall average food intake (grams+/−SEM) [2, 9]: 30.8+/−1.5 grams
overall cholesterol level change (mmol/L+/−SEM) [2, 9]: 5.0 ± 0.3 mmol/L
overall average glucose change (%+/−SEM) ([2]; non-fasting glucose, averaged over the entire experiment): −24.0+/−0.6%
berberine plasma concentration [3]: 0.44 ng/mL
cholesterol levels on Day 14 (mmol/L+/−SEM) (male Zucker rats (fa/fa)): 8.3 ± 0.7 mmol/L
rate of weight gain (grams/day) (male Zucker rats (fa/fa)): 1.7 grams/day
triglyceride levels on Day 14 (mmol/L+/−SEM) (male Zucker rats (fa/fa)): 14.8 ± 3.0 mmol/L
concentration at 15 days [4]: 0.101 µg/mL
Dissolving Capability ([5]; Ethanol, sonication 40 C.): 40 mg/mL
State of Solubility ([5]; Ethanol, sonication 40 C.): Suspension
Dissolving Capability ([5]; Ethanol, sonication RT): 25 mg/mL
State of Solubility ([5]; Ethanol, sonication RT): Suspension
Dissolving Capability [5, 10]: 250 mg/mL
State of Solubility [5, 10]: Suspension
Dissolving Capability [5, 11]: 50 mg/mL
State of Solubility [5, 11]: Suspension
Dissolving Capability [5, 12]: 250 mg/mL
State of Solubility [5, 12]: Suspension
Dissolving Capability [5, 13]: 50 mg/mL
State of Solubility [5, 13]: Suspension
Dissolving Capability ([5]; Isosorbid-dimethyl ether 98%, sonication 40 C.): 250 mg/mL
State of Solubility ([5]; Isosorbid-dimethyl ether 98%, sonication 40 C., at the concentration of the same line): Suspension
Dissolving Capability [5, 14]: 50 mg/mL
State of Solubility [5, 14]: Suspension
Dissolving Capability [5, 15]: 250 mg/mL
State of Solubility [5, 15]: Suspension
Dissolving Capability ([5]; Oleyl alcohol, sonication RT): 50 mg/mL
State of Solubility ([5]; Oleyl alcohol, sonication RT): Suspension
Dissolving Capability ([5]; Water, sonication 40 C.): 50 mg/mL
State of Solubility ([5]; Water, sonication 40 C.): Suspension
Dissolving Capability ([5]; Water, sonication RT): 25 mg/mL
State of Solubility ([5]; Water, sonication RT): Suspension
bioavailability of orally administered berberine [6]: approximately 0.7%
bioavailability [7]: below 1%
Tmax [8]: ~15 min
time to almost complete clearance after administration [8]: ≤ 30 min

From patent publication US20180235870A1, “TRANSDERMAL FORMULATIONS FOR DELIVERY OF BERBERINE COMPOUNDS, AND THEIR USE IN THE TREATMENT OF BERBERINE-RESPONSIVE DISEASES AND CONDITIONS” (DELIVRA INC., priority 2015, published 2018)
